The results in this text go back to patent US8871753B2, “Macrocyclic compounds and their use as kinase inhibitors” (Incyte Corporation, priority 2008, dated 2014).

Where a name gives a salt, the structure may show the parent alone. Read-outs that look alike come from different tables or passages of the source.

What all share (type): biochemical
Assay [1] addresses T1, Recombinant Human Anaplastic Lymphoma Kinase (Homo sapiens, UniProt Q9UM73).
T1 construct: purchased Invitrogen, Carlsbad, Calif
Kind of assay: ALK HTRF kinase assay. The gist of the method: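 TR-FRET read-out (Eu anti-pTyr antibody + streptavidin-APC) of biotin-peptide phosphorylation by recombinant human enzyme; IC50 by sigmoidal fit with top/bottom baselines and Hill slope.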
In general terms: TR-FRET usually uses a lanthanide donor and a delayed reading to cut background.

Assay [2] has as its target T2, human JAK1 (a.a. 837-1142) (Homo sapiens, UniProt P23458).
T2 construct: human JAK1 (a.a. 837-1142); His tag (N); made in house; host or cells: insect cells (baculovirus)
Put plainly: In vitro JAK kinase assay (HTRF, phosphorylation of a biotinylated peptide), JAK1. The conditions noted are these: read-out: JAK1 IC50. The gist of the method: (§1)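 Kinase reactions ran at room temperature for 1 h with ATP matched per isoform (JAK1 90 μM, JAK2 30 μM, JAK3 3 μM). After an EDTA stop, the phosphorylated biotin-peptide was read by HTRF using Eu-Py20 and SA-APC after 40 min binding.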

The target in assay [3] is TYK2 (Homo sapiens, UniProt P29597). Kind of assay: TYK2 kinase inhibition (Table A1).
TYK2, sequence (P29597 whole entry): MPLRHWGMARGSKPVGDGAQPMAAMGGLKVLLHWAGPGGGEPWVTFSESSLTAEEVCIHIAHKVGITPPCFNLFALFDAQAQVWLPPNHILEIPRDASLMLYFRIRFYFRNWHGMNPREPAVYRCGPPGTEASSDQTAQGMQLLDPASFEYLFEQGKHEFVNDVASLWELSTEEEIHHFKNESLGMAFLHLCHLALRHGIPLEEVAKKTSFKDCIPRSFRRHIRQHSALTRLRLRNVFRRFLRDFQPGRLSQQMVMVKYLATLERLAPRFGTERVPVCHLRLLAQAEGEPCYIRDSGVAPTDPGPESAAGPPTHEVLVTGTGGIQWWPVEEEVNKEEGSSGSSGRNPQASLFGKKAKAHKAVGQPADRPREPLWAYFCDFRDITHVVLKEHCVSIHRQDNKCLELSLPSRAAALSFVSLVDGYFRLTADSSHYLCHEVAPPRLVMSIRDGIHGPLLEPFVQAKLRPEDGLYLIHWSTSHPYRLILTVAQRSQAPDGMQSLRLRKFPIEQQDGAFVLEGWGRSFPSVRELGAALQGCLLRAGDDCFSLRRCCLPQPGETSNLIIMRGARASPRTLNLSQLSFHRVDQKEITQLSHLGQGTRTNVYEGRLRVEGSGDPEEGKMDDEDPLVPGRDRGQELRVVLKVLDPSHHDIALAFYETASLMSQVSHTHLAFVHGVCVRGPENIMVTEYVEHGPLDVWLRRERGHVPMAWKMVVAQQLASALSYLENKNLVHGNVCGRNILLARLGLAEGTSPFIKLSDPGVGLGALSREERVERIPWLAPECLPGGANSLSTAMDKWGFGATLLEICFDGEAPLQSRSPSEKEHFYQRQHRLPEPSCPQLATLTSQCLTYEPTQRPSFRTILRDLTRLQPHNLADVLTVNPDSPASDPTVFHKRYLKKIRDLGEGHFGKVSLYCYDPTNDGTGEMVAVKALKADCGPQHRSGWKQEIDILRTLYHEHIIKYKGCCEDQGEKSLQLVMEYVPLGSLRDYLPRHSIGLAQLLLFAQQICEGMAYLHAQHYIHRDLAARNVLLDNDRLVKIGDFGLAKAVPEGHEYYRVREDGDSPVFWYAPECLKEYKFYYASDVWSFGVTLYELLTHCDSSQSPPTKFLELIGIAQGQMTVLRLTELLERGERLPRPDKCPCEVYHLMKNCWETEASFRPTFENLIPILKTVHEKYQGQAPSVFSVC
In assay [4] the target is T3, human JAK2 (a.a. 828-1132) (Homo sapiens, UniProt O60674).
T3 construct: JAK2 (a.a. 828-1132); His tag (N); made in house; host or cells: insect cells (baculovirus)
T3 sequence (O60674 828-1132): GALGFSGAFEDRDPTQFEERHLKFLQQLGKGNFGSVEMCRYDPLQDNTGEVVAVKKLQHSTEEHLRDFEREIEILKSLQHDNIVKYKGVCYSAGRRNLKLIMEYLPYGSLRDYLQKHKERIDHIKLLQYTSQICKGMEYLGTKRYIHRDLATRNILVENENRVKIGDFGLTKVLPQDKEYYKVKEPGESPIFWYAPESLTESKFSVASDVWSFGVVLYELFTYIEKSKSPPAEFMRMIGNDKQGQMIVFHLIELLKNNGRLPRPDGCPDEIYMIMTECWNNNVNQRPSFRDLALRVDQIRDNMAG
Kind of assay: In vitro JAK kinase assay (HTRF, phosphorylation of a biotinylated peptide), JAK2. The gist of the method:
as §1

The target of assay [5] is T4, human JAK3 (a.a. 781-1124) (Homo sapiens, UniProt P52333).
T4 construct: JAK3 (a.a. 781-1124); His tag (N); made in house; host or cells: insect cells (baculovirus)
T4 sequence (P52333 781-1124): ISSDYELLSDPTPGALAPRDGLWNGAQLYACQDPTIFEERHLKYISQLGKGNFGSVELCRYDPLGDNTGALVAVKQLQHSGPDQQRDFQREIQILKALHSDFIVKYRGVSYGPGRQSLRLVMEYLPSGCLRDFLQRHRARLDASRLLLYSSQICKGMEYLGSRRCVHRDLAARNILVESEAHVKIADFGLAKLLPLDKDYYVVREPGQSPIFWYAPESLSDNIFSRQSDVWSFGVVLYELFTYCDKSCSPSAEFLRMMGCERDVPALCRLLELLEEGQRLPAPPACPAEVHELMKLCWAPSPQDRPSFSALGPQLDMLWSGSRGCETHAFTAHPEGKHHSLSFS
Kind of assay: In vitro JAK kinase assay (HTRF, phosphorylation of a biotinylated peptide), JAK3. The gist of the method: as §1

Where [6] appears, read: compound at 500 nM or 1 mM, 90 μM ATP.
[7] abbreviates: method AA1 (90 μM ATP) or AA2 (1000 μM ATP), not stated per value.
Where [8] appears, read: method AA1 (30 μM ATP) or AA2 (1000 μM ATP), not stated per value.
The mark [9] stands for this setting: method AA1 (3 μM ATP) or AA2 (1000 μM ATP), not stated per value.
[10] abbreviates: Table B1, cells without percent sign.
The mark [11] stands for this setting: compound at a concentration of 500 nM or 1 mM (not specified), cells shown as percentage.

T1 sequence (Q9UM73 19-1620): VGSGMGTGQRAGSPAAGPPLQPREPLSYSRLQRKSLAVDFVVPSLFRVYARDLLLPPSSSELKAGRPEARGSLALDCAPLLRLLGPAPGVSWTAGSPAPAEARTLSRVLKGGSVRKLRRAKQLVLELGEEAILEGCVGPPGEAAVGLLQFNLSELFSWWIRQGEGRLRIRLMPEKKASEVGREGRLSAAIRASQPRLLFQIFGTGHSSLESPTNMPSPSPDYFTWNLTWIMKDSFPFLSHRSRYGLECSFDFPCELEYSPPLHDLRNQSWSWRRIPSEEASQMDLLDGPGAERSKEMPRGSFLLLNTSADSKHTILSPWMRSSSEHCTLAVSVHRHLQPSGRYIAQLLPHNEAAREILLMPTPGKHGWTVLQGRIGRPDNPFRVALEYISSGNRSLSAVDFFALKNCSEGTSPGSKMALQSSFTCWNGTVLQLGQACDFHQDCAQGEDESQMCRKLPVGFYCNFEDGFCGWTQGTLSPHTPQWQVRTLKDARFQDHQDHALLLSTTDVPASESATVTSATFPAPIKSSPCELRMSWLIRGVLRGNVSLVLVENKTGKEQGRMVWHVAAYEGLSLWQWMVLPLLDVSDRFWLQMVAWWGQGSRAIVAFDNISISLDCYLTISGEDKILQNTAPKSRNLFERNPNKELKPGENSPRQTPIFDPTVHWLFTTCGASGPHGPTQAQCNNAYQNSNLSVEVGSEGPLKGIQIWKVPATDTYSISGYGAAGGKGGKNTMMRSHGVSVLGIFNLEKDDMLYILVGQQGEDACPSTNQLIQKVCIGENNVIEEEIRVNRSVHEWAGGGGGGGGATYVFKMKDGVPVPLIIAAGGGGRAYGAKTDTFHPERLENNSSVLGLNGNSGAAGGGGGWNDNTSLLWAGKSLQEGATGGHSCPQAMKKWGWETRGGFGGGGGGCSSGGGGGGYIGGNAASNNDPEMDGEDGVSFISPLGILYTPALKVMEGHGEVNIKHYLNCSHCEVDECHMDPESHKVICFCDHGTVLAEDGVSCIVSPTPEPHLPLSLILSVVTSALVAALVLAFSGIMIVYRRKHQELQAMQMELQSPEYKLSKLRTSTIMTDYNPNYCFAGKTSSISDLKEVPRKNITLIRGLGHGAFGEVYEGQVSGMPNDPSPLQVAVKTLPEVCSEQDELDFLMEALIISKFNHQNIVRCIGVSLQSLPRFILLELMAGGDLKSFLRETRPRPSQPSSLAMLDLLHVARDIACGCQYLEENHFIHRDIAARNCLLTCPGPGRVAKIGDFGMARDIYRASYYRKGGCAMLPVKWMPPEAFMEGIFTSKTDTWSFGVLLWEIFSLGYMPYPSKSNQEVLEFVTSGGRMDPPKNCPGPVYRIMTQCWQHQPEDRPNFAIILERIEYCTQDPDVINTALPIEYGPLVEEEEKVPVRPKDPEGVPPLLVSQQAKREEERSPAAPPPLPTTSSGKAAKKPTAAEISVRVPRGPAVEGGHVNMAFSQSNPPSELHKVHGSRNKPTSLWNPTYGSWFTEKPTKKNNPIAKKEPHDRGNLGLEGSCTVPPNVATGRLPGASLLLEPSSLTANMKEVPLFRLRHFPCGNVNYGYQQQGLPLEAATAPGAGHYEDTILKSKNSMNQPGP
T2 sequence (P23458 849-1154): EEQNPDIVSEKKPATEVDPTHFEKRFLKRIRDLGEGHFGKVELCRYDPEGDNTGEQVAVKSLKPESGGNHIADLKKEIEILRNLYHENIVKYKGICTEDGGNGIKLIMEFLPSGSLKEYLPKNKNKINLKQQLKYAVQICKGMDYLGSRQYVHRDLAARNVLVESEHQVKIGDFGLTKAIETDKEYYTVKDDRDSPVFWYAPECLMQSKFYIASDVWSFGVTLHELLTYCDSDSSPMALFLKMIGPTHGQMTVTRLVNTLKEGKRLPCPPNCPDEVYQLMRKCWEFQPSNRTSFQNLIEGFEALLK

In general, IC50 refers to the concentration that gives 50% inhibition. Turning to `CCS(=O)(=O)N1CCC(CC(=O)Nc2ccc3cc2CCc2cccc(c2)Nc2ncc(Cl)c(n2)N3)CC1` [Example A83, N-[6-Chloro-2,4,8,22-tetraazatetracyclo[14.3.1.1(3,7).1(9,13)]docosa-1(20),3(22),4,6,9(21),10,12,16,18-nonaen-12-yl]-2-[1-(ethylsulfonyl)piperidin-4-yl]acetamide trifluoroacetate], in assay [1] (setting [6]), the “ALK % of inhibition at a concentration of 500 nM or 1 mM” value (from here on “ALK % of inhibition”) is reported as 41%. The IC50 in assay [2] (setting [7]) was 1.9 nM; in assay [3] it was 2.5 nM; in assay [4] (setting [8]), 2.5 nM; in assay [5] (setting [9]), 12 nM.

Consider `COc1cc(C(=O)N2CCC(CC(=O)Nc3ccc4cc3CCc3cncc(c3)Nc3ncc(Cl)c(n3)N4)CC2)on1` [Example A215, N-[6-Chloro-2,4,8,18,22-pentaazatetracyclo[14.3.1.1(3,7).1(9,13)]docosa-1(20),3(22),4,6,9(21),10,12,16,18-nonaen-12-yl]-2-{1-[(3-methoxyisoxazol-5-yl)carbonyl]piperidin-4-yl}acetamide bis(trifluoroacetate)], for which the “ALK % of inhibition” value in assay [1] (setting [6]) stood at 32%. In addition, the IC50 is 16 nM in assay [2] (setting [7]), 160 nM in assay [3], 185 nM in assay [4] (setting [8]) and more than 200 nM in assay [5] (setting [9]).

As to `Cn1ccc2c(NC(=O)N3CCN(C(=O)COc4ccc5cc4CCc4cccc(c4)Nc4ncc(Cl)c(n4)N5)CC3)cccc21` [Example A11, 4-({[6-Chloro-2,4,8,22-tetraazatetracyclo[14.3.1.1(3,7).1(9,13)]docosa-1(20),3(22),4,6,9(21),10,12,16,18-nonaen-12-yl]oxy}acetyl)-N-(1-methyl-1H-indol-4-yl)piperazine-1-carboxamide trifluoroacetate], in assay [1] (setting [6]), the “ALK % of inhibition” value stood at 12%. Also, the IC50 in assay [2] (setting [7]) was 3.4 nM; in assay [3], 9.5 nM; in assay [4] (setting [8]), 5.6 nM; in assay [5] (setting [9]) it was 16 nM.

For the compound `CC(=O)Nc1ccc(C(=O)Nc2ccc3cc2CCc2cccc(c2)Nc2ncc(Cl)c(n2)N3)cc1` [Example B45, 4-(Acetylamino)-N-[6-chloro-2,4,8,22-tetraazatetracyclo[14.3.1.1(3,7).1(9,13)]docosa-1(20),3(22),4,6,9(21),10,12,16,18-nonaen-12-yl]benzamide trifluoroacetate], the IC50 in assay [1] (setting [10]) was found to be 95 nM; in assay [2] (Table B1), 0.88 nM; in assay [3] (Table B1) it was 0.53 nM; in assay [4] (Table B1), 0.6 nM; in assay [5] (Table B1) it was 3.7 nM.

With `O=C(Nc1ccc2cc1CCc1cncc(c1)Nc1ncc(Cl)c(n1)N2)N[C@H]1CCNC1` [Example B25, N-[6-Chloro-2,4,8,18,22-pentaazatetracyclo[14.3.1.1(3,7).1(9,13)]docosa-1(20),3(22),4,6,9(21),10,12,16,18-nonaen-12-yl]-N′-[(3S)-pyrrolidin-3-yl]urea trihydrochloride], the “ALK % of inhibition” value in assay [1] (setting [11]) amounted to 14%. Besides, the IC50 in assay [2] (Table B1) turned out to be 12 nM; in assay [3] (Table B1), 50 nM; in assay [4] (Table B1) it was 36 nM; in assay [5] (Table B1), 153 nM.

Consider `O=C1NCc2cccc(c2)Nc2nc(ncc2Cl)Nc2cccc1c2` [Example C5, 6-Chloro-2,4,8,15,23-pentaazatetracyclo[15.3.1.1(3,7).1(9,13)]tricosa-1(21),3(23),4,6,9(22),10,12,17,19-nonaen-16-one hydrochloride], for which the IC50 in assay [1], in assay [2], in assay [3], in assay [4] and in assay [5] was more than 1000 nM each time.

On to `N#Cc1cccc(C(=O)N2CCC(CC(=O)Nc3ccc4cc3CCc3cccc(c3)Nc3ncc(Cl)c(n3)N4)CC2)c1` [Example A187, N-[6-Chloro-2,4,8,22-tetraazatetracyclo[14.3.1.1(3,7).1(9,13)]docosa-1(20),3(22),4,6,9(21),10,12,16,18-nonaen-12-yl]-2-[1-(3-cyanobenzoyl)piperidin-4-yl]acetamide trifluoroacetate], for which the “ALK % of inhibition” value in assay [1] (setting [6]) worked out at 37%. The IC50 is 52 nM in assay [2] (setting [7]), more than 200 nM in assay [3], 132 nM in assay [4] (setting [8]) and more than 200 nM in assay [5] (setting [9]).

In the case of `O=C(Nc1ccc2cc1CCc1cccc(c1)Nc1ncc(Cl)c(n1)N2)c1ccc(C(F)(F)F)cc1` [Example B75, N-[6-Chloro-2,4,8,22-tetraazatetracyclo[14.3.1.1(3,7).1(9,13)]docosa-1(20), 3(22),4,6,9(21),10,12,16,18-nonaen-12-yl]-4-(trifluoromethyl)benzamide trifluoroacetate], the “ALK % of inhibition” value in assay [1] (setting [11]) came out at 17%. The IC50 was determined as 4.7 nM in assay [2] (Table B1), 30 nM in assay [3] (Table B1), 30 nM in assay [4] (Table B1) and 80 nM in assay [5] (Table B1).

With `Clc1cnc2nc1Nc1cccc(c1)SSc1cccc(c1)N2` [Example D12, 6-Chloro-14,15-dithia-2,4,8,22-tetraazatetracyclo[14.3.1.1(3,7).1(9,13)]docosa-1(20),3(22),4,6,9(21),10,12,16,18-nonaene trifluoroacetate], the IC50 in assay [1] (Table D1, 90 μM ATP) was more than 10000 nM; in assay [2] (Table D1), 178 nM; in assay [3] (Table D1) it was 324 nM; in assay [4] (Table D1), 290 nM; in assay [5] (Table D1), 369 nM.

`O=S(=O)(c1ccc(Cl)cc1)c1ccc(CN2CCN(Cc3cc4cc(c3)Nc3nc(ncc3Cl)Nc3cccc(c3)CC4)CC2)cc1` [Example B195, 6-Chloro-11-[(4-{4-[(4-chlorophenyl)sulfonyl]benzyl}piperazin-1-yl)methyl]-2,4,8,22-tetraazatetracyclo[14.3.1.1(3,7).1(9,13)]docosa-1(20),3(22),4,6,9(21),10,12,16,18-nonaene tris(trifluoroacetate)]: the IC50 in assay [1] (setting [10]) was more than 10000 nM; in assay [2] (Table B1), more than 1000 nM; in assay [3] (Table B1), more than 1000 nM; in assay [4] (Table B1) it was 91 nM; in assay [5] (Table B1), more than 1000 nM.

Turning to `N#Cc1cccnc1N1CCC(CC(=O)Nc2ccc3cc2CCc2cncc(c2)Nc2ncc(Cl)c(n2)N3)CC1` [Example A177, N-[6-Chloro-2,4,8,18,22-pentaazatetracyclo[14.3.1.1(3,7).1(9,13)]docosa-1(20),3(22),4,6,9(21),10,12,16,18-nonaen-12-yl]-2-[1-(3-cyanopyridin-2-yl)piperidin-4-yl]acetamide tris(trifluoroacetate)], the “ALK % of inhibition” value in assay [1] (setting [6]) is on record as 34%. The half-inhibitory concentration (IC50) in assay [2] (setting [7]) was 14 nM; in assay [3], more than 200 nM; in assay [4] (setting [8]), 95 nM; in assay [5] (setting [9]), more than 200 nM.

With `O=C(Nc1ccc2cc1CCc1cncc(c1)Nc1ncc(Cl)c(n1)N2)N1CCNCC1` [Example B285, N-[6-Chloro-2,4,8,18,22-pentaazatetracyclo[14.3.1.1(3,7).1(9,13)]docosa-1(20),3(22),4,6,9(21),10,12,16,18-nonaen-12-yl]piperazine-1-carboxamidetrihydrochloride], in assay [1] (setting [11]), the “ALK % of inhibition” value is given as 38%. The IC50 in assay [2] (Table B1) is 100 nM; in assay [3] (Table B1) it was more than 200 nM; in assay [4] (Table B1), more than 200 nM; in assay [5] (Table B1) it was more than 200 nM.

For `O=C(CC1CCN(C(=O)c2cnccn2)CC1)Nc1ccc2cc1CCc1cncc(c1)Nc1ncc(Cl)c(n1)N2` [Example A102, N-[6-Chloro-2,4,8,18,22-pentaazatetracyclo[14.3.1.1(3,7).1(9,13)]docosa-1(20),3(22),4,6,9(21),10,12,16,18-nonaen-12-yl]-2-[1-(pyrazin-2-ylcarbonyl)piperidin-4-yl]acetamide tris(trifluoroacetate)], the “ALK % of inhibition” value in assay [1] (setting [6]) is 21%. For the same compound, the IC50 in assay [2] (setting [7]) stood at 10 nM; in assay [3], 19 nM; in assay [4] (setting [8]), 20 nM; in assay [5] (setting [9]), 170 nM.

Take `Cc1cc(C(=O)N2CCN(CC(=O)Nc3ccc4cc3CCc3cncc(c3)Nc3ncc(Cl)c(n3)N4)CC2)no1` [Example A119, N-[6-Chloro-2,4,8,18,22-pentaazatetracyclo[14.3.1.1(3,7).1(9,13)]docosa-1(20),3(22),4,6,9(21),10,12,16,18-nonaen-12-yl]-2-{4-[(5-methylisoxazol-3-yl)carbonyl]piperazin-1-yl}acetamide tris(trifluoroacetate)]: the “ALK % of inhibition” value in assay [1] (setting [6]) is reported as 15%. Also, the half-inhibitory concentration (IC50) in assay [2] (setting [7]) turned out to be 3.6 nM; in assay [3], 8.6 nM; in assay [4] (setting [8]), 16 nM; in assay [5] (setting [9]), 174 nM.
